# Measurements as given in patent US20070060573A1, “Acyltryptophanols” (priority 2005, published 2007).
# Molecular target: T1, human FSH receptor (Homo sapiens, UniProt P23945)
# T1 construct: expressed in transfected cells; host or cells: CHO cells (hFSHR clone 16)
# T1 sequence (P23945 18-695): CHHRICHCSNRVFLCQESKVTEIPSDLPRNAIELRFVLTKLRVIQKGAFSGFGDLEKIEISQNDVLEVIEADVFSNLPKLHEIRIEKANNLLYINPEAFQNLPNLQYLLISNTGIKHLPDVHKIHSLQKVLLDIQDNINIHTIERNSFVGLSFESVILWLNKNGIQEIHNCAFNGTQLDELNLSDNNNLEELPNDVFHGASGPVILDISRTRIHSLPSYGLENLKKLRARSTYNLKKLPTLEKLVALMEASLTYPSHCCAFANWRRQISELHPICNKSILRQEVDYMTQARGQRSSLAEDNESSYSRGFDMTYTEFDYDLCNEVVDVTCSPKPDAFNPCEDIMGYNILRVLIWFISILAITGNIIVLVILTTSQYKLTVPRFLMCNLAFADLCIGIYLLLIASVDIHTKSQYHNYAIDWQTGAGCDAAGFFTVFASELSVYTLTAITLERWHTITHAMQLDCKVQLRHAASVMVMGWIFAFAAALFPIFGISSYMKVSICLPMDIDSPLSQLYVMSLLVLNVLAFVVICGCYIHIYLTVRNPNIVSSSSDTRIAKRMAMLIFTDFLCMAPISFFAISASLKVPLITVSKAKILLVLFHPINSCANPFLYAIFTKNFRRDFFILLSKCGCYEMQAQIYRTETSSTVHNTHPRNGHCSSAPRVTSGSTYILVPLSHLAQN
# Assay: HTRF assay for measuring cAMP in cells, FSH-antagonistic effect (in the presence of hFSH)
# Type: cell-based
# Settings: hFSHR clone 16 cells (CHO cells stably transfected with the human FSH receptor), in the presence of 1e-9 mol/l hFSH, 37° C. for 2 h
# From the text: […]
row,SMILES,IC50 [µM]
1,"CCOc1ccc(-c2cnc(OC)nc2)cc1C(=O)N[C@@H](CO)Cc1c[nH]c2ccccc12 [Example 130, 2-Ethoxy-N-[(R)-1-hydroxymethyl-2-(1H-indol-3-yl)ethyl]-5-(2-methoxypyrimidin-5-yl)benzamide]",4
2,"COc1ccc(-c2cc(F)c(F)c(F)c2)c(C(=O)N[C@@H](CO)Cc2c[nH]c3ccccc23)c1 [Example 88, 3′,4′, 5′-Trifluoro-N-[(R)-1-(hydroxymethyl)-2-(1H-indol-3-yl)ethyl]-4-methoxy[1,1′-biphenyl]-2-carboxamide]",10
3,"COc1ccc(-c2cc(CCCO)cc(C(=O)N[C@@H](CO)Cc3c[nH]c4ccccc34)c2)cc1OC [Example 396, 5-(3-Hydroxypropyl)-3′,4′-dimethoxybiphenyl-3-carboxylic acid [(R)-1-hydroxymethyl-2-(1H-indol-3-yl)ethyl]amide]",3.5
4,CCn1cc(C[C@H](CO)NC(=O)c2cc(-c3cc(F)c(OC)c(F)c3)nc3ccc(OC)cc23)c2ccccc21 [Example 337],3.5
5,"COc1cc(-c2cc(C(=O)NC(CO)Cc3c[nH]c4ccc(Br)cc34)c3ccccc3n2)cc(OC)c1OC (racemic) [Example 1, N-[(R,S)-2-(5-Bromo-1H-indol-3-yl)-1-(hydroxymethyl)ethyl]-2-(3,4,5-trimethoxyphenyl)quinoline-4-carboxamide]",7
6,"O=C(N[C@@H](CO)Cc1c[nH]c2ccccc12)c1cc(-c2ccc3c(c2)CCO3)nc2ccccc12 [Example 36, 2-(2,3-Dihydrobenzofuran-5-yl)-N-[(R)-1-(hydroxymethyl)-2-(1H-indol-3-yl)ethyl]quinoline-4-carboxamide]",6
7,"CC(C)c1cccc(-c2cccc(C(=O)N[C@@H](CO)Cc3c[nH]c4ccccc34)c2)c1 [Example 59, N-[(R)-1-(Hydroxymethyl)-2-(1H-indol-3-yl)ethyl]-3′-(1-methylethyl)[1,1′-biphenyl]-3-carboxamide]",6
8,"COc1ccc(OC)c(-c2cccc(C(=O)N[C@@H](CO)Cc3c[nH]c4ccccc34)c2)c1 [Example 87, N-[(R)-1-(Hydroxymethyl)-2-(1H-indol-3-yl)ethyl]-2′,5′-dimethoxy-[1,1′-biphenyl]-3-carboxamide]",10
9,"CC(C)c1cccc(-c2ccccc2C(=O)N[C@@H](CO)Cc2c[nH]c3ccccc23)c1 [Example 86, N-[(R)-1-(Hydroxymethyl)-2-(1H-indol-3-yl)ethyl]-3′-(1-methylethyl)[1,1′-biphenyl]-2-carboxamide]",8
10,"COc1ccc2nc(-c3cc(OC)c(OC)c(OC)c3)cc(C(=O)N[C@H](Cc3c[nH]c4ccccc34)C(C)(C)O)c2c1 [Example 373, 6-Methoxy-2-(3,4,5-trimethoxyphenyl)quinoline-4-carboxylic acid [(R)-2-hydroxy-1-(1H-indol-3-ylmethyl)-2-methylpropyl]amide]",8
11,"COc1ccc2nc(-c3ccc(OC)c(OC)c3OC)cc(C(=O)N[C@@H](CO)Cc3c[nH]c4ccccc34)c2c1 [Example 16, N-[(R)-1-(Hydroxymethyl)-2-(1H-indol-3-yl)ethyl]-6-methoxy-2-(2,3,4-trimethoxyphenyl)quinoline-4-carboxamide]",4
12,"COc1cc(-c2cc(C(=O)N[C@@H](CO)Cc3c[nH]c4ccccc34)c3cc([N+](=O)[O-])ccc3n2)cc(OC)c1OC [Example 19, N-[(R)-1-(Hydroxymethyl)-2-(1H-indol-3-yl)ethyl]-6-nitro-2-(3,4,5-trimethoxyphenyl)quinoline-4-carboxamide]",6
13,"COCCCc1ccc2nc(-c3cc(OC)c(OC)c(OC)c3)cc(C(=O)N[C@@H](CO)Cc3c[nH]c4ccccc34)c2c1 [Example 392, 6-(3-Methoxypropyl)-2-(3,4,5-trimethoxyphenyl) quinoline-4-carboxylic acid [(R)-1-hydroxy-methyl-2-(1H-indol-3-yl)ethyl]amide]",1.5
14,"COc1ccc2nc(-c3ccc(OC)c(F)c3)nc(C(=O)N[C@@H](CO)Cc3c[nH]c4ccccc34)c2c1 [Example 368, 2-(3-Fluoro-4-methoxyphenyl)-6-methoxyquinazoline-4-carboxylic acid [(R)-2-hydroxy-1-(1H-indol-3-ylmethyl)ethyl]amide]",2.5
15,"COc1cc(COc2ccccc2CCC(=O)N[C@@H](CO)Cc2c[nH]c3ccccc23)cc(OC)c1OC [Example 91, N-[(R)-1-(Hydroxymethyl)-2-(1H-indol-3-yl)ethyl]-2-[(3,4,5-trimethoxyphenyl)methoxy]phenylpropanamide]",6
16,"COc1cc(-c2cc(C#CCO)cc(C(=O)N[C@@H](CO)Cc3c[nH]c4ccccc34)c2)cc(OC)c1OC [Example 379, 5-(3-Hydroxyprop-1-ynyl)-3′,4′,5′-trimethoxybiphenyl-3-carboxylic acid [(R)-1-hydroxy-methyl-2-(1H-indol-3-yl)ethyl]amide]",4.5
17,"CCOc1ccc(-c2ccc(C)cc2)cc1C(=O)N[C@@H](CO)Cc1c[nH]c2ccccc12 [Example 162, 4-Ethoxy-4′-methylbiphenyl-3-carboxylic acid [(R)-1-hydroxy-methyl-2-(1H-indol-3-yl)ethyl]amide]",1.5
18,"Cc1nc(C)c(-c2cc(C(=O)N[C@@H](CO)Cc3c[nH]c4ccccc34)c3cc(Br)ccc3n2)s1 [Example 108, 6-Bromo-2-(2,4-dimethyl-thiazol-5-yl)quinoline-4-carboxylic acid [(R)-2-hydroxy-1-(1H-indol-3-ylmethyl)ethyl]amide]",3
19,"COc1cc(-c2cc(C(=O)NC(CO)Cc3c[nH]c4c(C)cccc34)c3ccccc3n2)cc(OC)c1OC (racemic) [Example 10, N-[(R,S)-1-(Hydroxymethyl)-2-(7-methyl-1H-indol-3-yl)ethyl]-2-(3,4,5-trimethoxyphenyl)quinoline-4-carboxamide]",1
20,"COc1ccc2cc(-c3cc(C(=O)N[C@@H](CO)Cc4c[nH]c5ccccc45)c4ccccc4n3)ccc2c1 [Example 97, 2-(6-Methoxy-naphthalen-2-yl)quinoline-4-carboxylic acid [(R)-1-hydroxymethyl-2-(1H-indol-3-yl)ethyl]amide]",4

# Now from value to compound:
row,IC50 [µM],SMILES
1,0.4,"COc1cc(-c2cc(C(=O)N[C@@H](CO)Cc3c[nH]c4ccccc34)c3cc(F)ccc3n2)cc(OC)c1OC [Example 17, 6-Fluoro-N-[(R)-1-(hydroxymethyl)-2-(1H-indol-3-yl)ethyl]-2-(3,4,5-trimethoxyphenyl)quinoline-4-carboxamide]"
2,1,"COc1cc(-c2cc(C(=O)NC(CO)Cc3c[nH]c4cc(F)ccc34)c3ccccc3n2)cc(OC)c1OC (racemic) [Example 8, N-[(R,S)-2-(6-Fluoro-1H-indol-3-yl)-1-(hydroxymethyl)ethyl]-2-(3,4,5-trimethoxyphenyl)quinoline-4-carboxamide]"
3,0.45,"COc1ccc(-c2ccc(OC)c(C(=O)N[C@@H](CO)Cc3c[nH]c4ccccc34)c2)cc1F [Example 307, 3′-Fluoro-4,4′-dimethoxybiphenyl-3-carboxylic acid [(R)-2-hydroxy-1-(1H-indol-3-ylmethyl)ethyl]amide]"
4,0.1,"COc1ccc(-c2cccc(C(=O)N[C@@H](CO)Cc3cn(CCCCC#N)c4ccccc34)c2)cc1F [Example 403, N-[(R)-2-[1-(4-Cyanobutyl)-1H-indol-3-yl]-1-(hydroxymethyl)ethyl]-3′-fluoro-4′-methoxy[1,1′-biphenyl]-3-carboxamide]"
5,0.2,"COc1cc(-c2cc(C(=O)NC(CO)Cc3c[nH]c4ccc(OCc5ccccc5)cc34)c3ccccc3n2)cc(OC)c1OC (racemic) [Example 9, N-[(R,S)-1-(Hydroxymethyl)-2-[5-(phenylmethoxy)-1H-indol-3-yl]ethyl]-2-(3,4,5-trimethoxyphenyl)quinoline-4-carboxamide]"
6,1,"CCCCCCn1cc(C[C@H](CO)NC(=O)c2cc(-c3cc(OC)c(OC)c(OC)c3)nc3ccc(OC)cc23)c2ccccc21 [Example 345, N-[(R)-1-(Hydroxymethyl)-2-(1-nhexyl-1H-indol-3-yl)ethyl]-6-methoxy-2-(3,4,5-trimethoxyphenyl)quinoline-4-carboxamide]"
7,1,"CCOc1ccc(-c2ccc(S(=O)(=O)CC)cc2)cc1C(=O)N[C@@H](CO)Cc1c[nH]c2ccccc12 [Example 483, 4-Ethanesulphonyl-4-ethoxybiphenyl-3-carboxylic [(R)-2-hydroxy-1-(1H-indol-3-ylmethyl)ethyl]amide]"
8,0.4,"COc1cc(-c2cc(/C=C\CCCO)cc(C(=O)N[C@@H](CO)Cc3c[nH]c4ccccc34)c2)cc(OC)c1OC [Example 388, 5-((Z)-5-Hydroxypent-1-enyl)-3′,4′,5′-trimethoxybiphenyl-3-carboxylic acid [(R)-1-hydroxy-methyl-2-(1H-indol-3-yl)ethyl]amide]"
9,0.4,"CCOc1ccc(-c2cccc(-c3ccccc3)c2)cc1C(=O)NC(CO)Cc1c[nH]c2ccccc12 (centres unmarked) [Example 430, 4-Ethoxy-[1,1′; 3′,1″]terphenyl-3-carboxylic acid [1-hydroxymethyl-2-(1H-indol-3-yl)ethyl]amide]"
